From patent US9422240B2, “Partially saturated nitrogen-containing heterocyclic compound” (TAISHO PHARMACEUTICAL CO., LTD, priority 2012, dated 2016)
Structures can show the parent of a compound that is named as a salt.

Legend:
[1] = molecular target: T1, human PHD2 (Homo sapiens (Human), UniProt Q9GZT9); test: Test 2: human PHD2 inhibitory activity, fluorescence polarization assay of HIF-1α peptide proline hydroxylation; format: biochemical; details: for inhibition at 1 µM: read-out: Percent inhibition (% at 1 μM); for IC50: human PHD2, fluorescence polarization assay, 20-min incubation at 30° C.
T1 sequence (Q9GZT9 whole entry): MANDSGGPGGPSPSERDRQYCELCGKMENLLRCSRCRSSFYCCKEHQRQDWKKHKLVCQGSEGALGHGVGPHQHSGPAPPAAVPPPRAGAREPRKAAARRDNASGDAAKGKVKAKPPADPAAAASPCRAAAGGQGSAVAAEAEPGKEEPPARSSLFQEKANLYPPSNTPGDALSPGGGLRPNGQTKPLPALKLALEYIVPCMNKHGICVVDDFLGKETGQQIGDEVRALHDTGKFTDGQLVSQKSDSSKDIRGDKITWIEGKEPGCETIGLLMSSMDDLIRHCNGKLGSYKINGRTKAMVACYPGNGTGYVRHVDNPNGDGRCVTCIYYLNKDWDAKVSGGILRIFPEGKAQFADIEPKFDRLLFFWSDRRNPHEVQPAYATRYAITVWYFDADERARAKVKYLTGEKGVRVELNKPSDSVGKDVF
How it was run: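 A 19-mer HIF-1α peptide served as substrate, with the reaction started by 40 ng/well human PHD2 (cell lysate of NM_022051-transfected cells) and run 20 min at 30° C. before EDTA stop. Hydroxylated product bound anti-HIF-OH antibody, read by fluorescence polarization versus no-compound control.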

[2] = molecular target: T1, human PHD2; test: Test 1: human PHD2 inhibitory activity, [14C]-2-oxoglutarate to [14C]-succinic acid radiometric assay with HIF-1α peptide; format: biochemical; details: read-out: Percent inhibition (% at 1 μM)
How it was run: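 Activity was measured by radiometric counting of [14C]-succinic acid formed during prolyl hydroxylation of a 19-mer HIF-1α peptide, after DNPH removal of residual [14C]-2-oxoglutarate. Baculovirus-expressed human PHD2 lysate (4 μg/well) reacted for 15 min at 37° C. Substrate-free and compound-free wells served as reference points for inhibition.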

[3] = test compound's concentration 1 μM, Test 2, fluorescence polarization assay
[4] = test compound's concentration 1 μM, Test 1, [14C]-2-oxoglutarate radiometric assay

Row | Compound | inhibition at 1 µM [1, 3] [%] | inhibition at 1 µM [2, 4] [%] | IC50 [1] [nM] | inhibition at 1 µM [1] [%] | inhibition at 1 µM [2] [%]
1 | CC1(C)CC(O)=C(C(=O)NCC(=O)O)C(=O)N1Cc1coc(-c2ccccc2)n1 [Ex. 1-295] | 74 | 63 | – | – | –
2 | O=C(O)CNC(=O)C1=C(O)CCN(Cc2ccc(Oc3ccc(C4CC4)cc3)nc2)C1=O [Ex. 1-296] | 102 | 100 | 15 | – | –
3 | Cc1ccc(Oc2ccc(CN3CCC(O)=C(C(=O)NCC(=O)O)C3=O)cc2)nc1 [Ex. 1-297] | 94 | 86 | 89 | – | –
4 | O=C(O)CNC(=O)C1=C(O)CCN(Cc2ccc(Oc3ccc(C(F)(F)F)cn3)cc2)C1=O [Ex. 1-298] | 94 | 84 | 79 | – | –
5 | Cn1nc(-c2ccccc2)cc1CN1C(=O)C(C(=O)NCC(=O)O)=C(O)CC1(C)C [Ex. 1-299] | 64 | 47 | – | – | –
6 | Cn1nc(CN2C(=O)C(C(=O)NCC(=O)O)=C(O)CC2(C)C)cc1-c1ccccc1 [Ex. 1-300] | 43 | 30 | – | – | –
7 | Cc1nc(-c2ccccc2)oc1CN1C(=O)C(C(=O)NCC(=O)O)=C(O)CC1(C)C [Ex. 1-301] | 75 | 56 | – | – | –
8 | CC1(C)CN(Cc2ccc(OCC3CC3)cc2)C(=O)C(C(=O)NCC(=O)O)=C1O [Ex. 1-302] | 79 | 61 | – | – | –
9 | Cc1ccc(Oc2ccc(CN3C(=O)C(C(=O)NCC(=O)O)=C(O)CC34CC4)cn2)cc1 [Ex. 1-303] | 100 | 102 | – | – | –
10 | CC1(C)CN(Cc2ccc(OC(F)(F)F)c(Cl)c2)C(=O)C(C(=O)NCC(=O)O)=C1O [Ex. 1-304] | 72 | 35 | – | – | –
11 | Cc1ccc(COc2ccc(CN3CCC(O)=C(C(=O)NCC(=O)O)C3=O)cc2)cc1 [Ex. 1-305] | 97 | 94 | – | – | –
12 | O=C(O)CNC(=O)C1=C(O)CCN(Cc2ccc(OCc3cccc(Cl)c3)cc2)C1=O [Ex. 1-306] | 99 | 94 | – | – | –
13 | O=C(O)CNC(=O)C1=C(O)CCN(C2CCCCC2)C1=O [Ex. 1-307] | 60 | 51 | – | – | –
14 | Cc1ccc(-c2ccc(CN3CCC(O)=C(C(=O)NCC(=O)O)C3=O)cc2)cc1 [Ex. 2-1, N-({4-Hydroxy-1-[(4′-methylbiphenyl-4-yl)methyl]-2-oxo-1,2,5,6-tetrahydropyridin-3-yl}carbonyl)glycine] | 88 | 93 | – | – | –
15 | Cn1cc(-c2ccc(CN3CCC(O)=C(C(=O)NCC(=O)O)C3=O)cc2)cn1 [Ex. 2-6] | 80 | 68 | – | – | –
16 | O=C(O)CNC(=O)C1=C(O)CCN(Cc2ccc(-c3cccnc3)cc2)C1=O [Ex. 2-7] | 91 | 88 | – | – | –
17 | O=C(O)CNC(=O)C1=C(O)CCN(Cc2ccc(-c3cnoc3)cc2)C1=O [Ex. 2-8] | 88 | 87 | – | – | –
18 | CC(C)c1cccc(-c2ccc(CN3CCC(O)=C(C(=O)NCC(=O)O)C3=O)cc2)c1 [Ex. 2-9] | 82 | 78 | – | – | –
19 | O=C(O)CNC(=O)C1=C(O)CCN(Cc2ccc(-c3ccc(-c4ccccc4)cc3)cc2)C1=O [Ex. 2-10] | 79 | 84 | – | – | –
20 | O=C(O)CNC(=O)C1=C(O)CCN(Cc2ccc(-c3ccc(Cl)cc3)cc2)C1=O [Ex. 2-11] | 91 | 93 | – | – | –
21 | COc1ccc(-c2ccc(CN3CCC(O)=C(C(=O)NCC(=O)O)C3=O)cc2)cc1 [Ex. 2-12] | 91 | 93 | – | – | –
22 | COc1ccc(-c2ccc(CN3CCC(O)=C(C(=O)NCC(=O)O)C3=O)cc2)cn1 [Ex. 2-13] | 87 | 92 | – | – | –

Row | Compound | inhibition at 1 µM [1, 3] [%] | inhibition at 1 µM [2, 4] [%] | IC50 [1] [nM] | inhibition at 1 µM [1] [%] | inhibition at 1 µM [2] [%]
23 | N#Cc1ccc(-c2ccc(CN3CCC(O)=C(C(=O)NCC(=O)O)C3=O)cc2)cc1 [Ex. 2-14] | 93 | 98 | – | – | –
24 | CN(C)S(=O)(=O)c1ccc(-c2ccc(CN3CCC(O)=C(C(=O)NCC(=O)O)C3=O)cc2)cc1 [Ex. 2-15] | 90 | 97 | – | – | –
25 | CC(=O)c1ccc(-c2ccc(CN3CCC(O)=C(C(=O)NCC(=O)O)C3=O)cc2)cc1 [Ex. 2-16] | 93 | 102 | – | – | –
26 | Cn1nccc1-c1ccc(CN2CCC(O)=C(C(=O)NCC(=O)O)C2=O)cc1 [Ex. 2-17] | 87 | 94 | – | – | –
27 | O=C(O)CNC(=O)C1=C(O)CCN(Cc2ccc(-c3ccsc3)cc2)C1=O [Ex. 2-18] | 91 | 98 | – | – | –
28 | O=C(O)CNC(=O)C1=C(O)CCN(Cc2ccc(-c3ccncc3)cc2)C1=O [Ex. 2-19] | 93 | 96 | – | – | –
29 | Cc1nc(C)c(-c2ccc(CN3CCC(O)=C(C(=O)NCC(=O)O)C3=O)cc2)s1 [Ex. 2-20] | 93 | 102 | – | – | –
30 | O=C(O)CNC(=O)C1=C(O)CCN(Cc2ccc(-c3ccc(C(F)(F)F)nc3)cc2)C1=O [Ex. 2-21] | 93 | 88 | – | – | –
31 | O=C(O)CNC(=O)C1=C(O)CCN(Cc2ccc(-c3cccc(Cl)c3)cc2)C1=O [Ex. 2-22] | 94 | 95 | – | – | –
32 | O=C(O)CNC(=O)C1=C(O)CCN(Cc2ccc(-c3ccc(Cl)c(Cl)c3)cc2)C1=O [Ex. 2-23] | 96 | 88 | – | – | –
33 | O=C(O)CNC(=O)C1=C(O)CCN(Cc2ccc(-c3ccc(C(F)(F)F)cc3)cc2)C1=O [Ex. 2-24] | 93 | 91 | – | – | –
34 | Cc1cccc(-c2ccc(CN3CCC(O)=C(C(=O)NCC(=O)O)C3=O)cc2)c1 [Ex. 2-25] | 96 | 92 | – | – | –
35 | COc1cccc(-c2ccc(CN3CCC(O)=C(C(=O)NCC(=O)O)C3=O)cc2)c1 [Ex. 2-26] | 95 | 90 | – | – | –
36 | O=C(O)CNC(=O)C1=C(O)CCN(Cc2ccc(-c3ccc4ncccc4c3)cc2)C1=O [Ex. 2-27] | 96 | 100 | – | – | –
37 | O=C(O)CNC(=O)C1=C(O)CCN(Cc2ccc(-c3ccc(F)cc3)cc2)C1=O [Ex. 2-28] | 97 | 90 | – | – | –
38 | O=C(O)CNC(=O)C1=C(O)CCN(Cc2ccc(-c3ccc(F)cc3)c(F)c2)C1=O [Ex. 2-29] | 95 | 101 | – | – | –
39 | O=C(O)CNC(=O)C1=C(O)CCN(Cc2ccc(-c3ccc(O)cc3)cc2)C1=O [Ex. 2-30] | 99 | 103 | – | – | –
40 | O=C(O)CNC(=O)C1=C(O)CCN(Cc2ccc(C3CCCC3)cc2)C1=O [Ex. 3-1, N-{[1-(4-Cyclopentylbenzyl)-4-hydroxy-2-oxo-1,2,5,6-tetrahydropyridin-3-yl]carbonyl}glycine sodium salt] | – | – | – | 95 | 102
41 | O=C(O)CNC(=O)C1=C(O)CCN(Cc2ccc(C3CC3)cc2)C1=O [Ex. 3-2, N-{[1-(4-Cyclopropylbenzyl)-4-hydroxy-2-oxo-1,2,5,6-tetrahydropyridin-3-yl]carbonyl}glycine sodium salt] | – | – | – | 90 | 87
42 | COc1ccc(CN2CCC(O)=C(C(=O)NCC(=O)O)C2=O)c(OC)c1 [Ex. 4-1, N-{[1-(2,4-Dimethoxybenzyl)-4-hydroxy-2-oxo-1,2,5,6-tetrahydropyridin-3-yl]carbonyl}glycine] | 67 | 58 | – | – | –
43 | C=CCOc1ccc(CN2CCC(O)=C(C(=O)NCC(=O)O)C2=O)cc1 [Ex. 4-2, N-({4-Hydroxy-2-oxo-1-[4-(prop-2-en-1-yloxy)benzyl]-1,2,5,6-tetrahydropyridin-3-yl}carbonyl)glycine] | 81 | 77 | – | – | –
